Read-outs that look alike come from different tables or passages of the source.
What was measured:
wild-type HCT-116 cells = test: Cell proliferation (MTS), wild-type HCT-116; assay type: cell-based; settings: Homo sapiens, 240 h; wild-type HCT-116, 10 days with compound, MTS reading; read-out: IC50 HCT116 WT
Outline: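 Wild-type HCT-116 cells were seeded at 100 cells/well in McCoy's 5A/10% FBS. From day 1 they were treated with compound in 3-fold dilutions (initial 20 µM, 8 points) for 10 days at 37° C. Proliferation was read by MTS on day 11, and IC50 was obtained from a four-parameter logistic fit.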

MTAP^-/- HCT-116 cells = test: Cell proliferation (MTS), MTAP-/- HCT-116; assay type: cell-based, human; settings: for Selectivity: HCT116 WT IC50 relative to HCT116 MTAP-/- IC50; for IC50: Homo sapiens, 240 h, MTAP-/- HCT-116, 10 days with compound, MTS reading, read-out: IC50 HCT116 MTAP-/-
Outline: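 MTAP-/- (CRISPR/Cas9 biallelic knockout) or wild-type HCT-116 cells seeded at 100 cells/well, treated next day with 8-point 3-fold dilutions (top 20 µM) for 10 days at 37 °C, 5% CO2. Viability read by MTS; IC50 from four-parameter logistic fit of inhibition rate vs log concentration.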

[1] = Human liver microsome stability; assay type: in vitro ADME; settings: pH 7.4; human liver microsomes 0.5 mg/mL, compound 1 µM, NADPH 1 mM, 37 °C
Description: (§1) Experimental materials: human liver microsomes (purchased from BIOIVT);
(§2) PBS: 0.1 M KH2PO4 and K2HPO4 buffers, pH 7.4.
MgCl2: a certain amount of MgCl2 was weighed out and prepared into a 16 mM MgCl2 solution with PBS.
NADPH (Chinese name: reduced nicotinamide adenine dinucleotide phosphate, purchased from Sigma, Cat. No.: 481973-500 mg): a certain amount of NADPH was weighed out and a 4 mM solution of NADPH was prepared with a 16 mM MgCl2 solution, and the final incubation concentration was 1 mM.
Compounds: 4 µM solutions of the test compounds and positive compounds were prepared with PBS, and the final incubation concentration was 1 µM.
Liver microsomes (purchased from BIOIVT, Cat. No.: X008070): the liver microsomes were diluted to […] with PBS, and the final incubation concentration was 0.5 mg/mL.
The prepared test compound or positive compound was added to a test tube, and then the prepared NADPH was added. The mixture was mixed well. The mixture was pre-incubated in a thermostat incubator at 220 rpm at 37 °C for 5 min, and the prepared liver microsomes were added to start the reaction. All steps were performed in replicate wells. At 0 min, 15 min, 30 min, 45 min, and 60 min, a certain volume of glacial acetonitrile solution containing an internal standard was added to the corresponding tube to precipitate the protein. The mixture was vortexed for 5 min with shaking, and then centrifuged at 4000 rpm for 10 min. […] The samples were analyzed by LC-MS/MS.
The concentrations (peak area ratios) of the example compounds were determined by LC-MS/MS. Rate constants were obtained by plotting "Ln (residual amount of compound %)" versus "incubation time" in Excel, thereby calculating the half-lives and intrinsic clearances of the drugs and providing a basis for the prediction of the in-vivo clearance.
[formula] CLH = CLint × fu × Qh /(CLint×fu+Qh) [formula]
Stability in human liver microsomes

CYP450 enzyme 3A4 = target: T1, CYP450 enzyme 3A4 (Homo sapiens, UniProt P08684); test: CYP inhibition test in human liver microsomes; assay type: in vitro ADME; settings: human liver microsomes 0.1 mg/mL
T1 construct: Liver microsomes (purchased from BIOIVT, Cat. No.: X008070); tissue BIOIVT X008070; host or cells: human liver microsomes
Description: as §1, §2
MgCl2: a certain amount of MgCl2 was weighed out and prepared into a 20 mM MgCl2 solution with PBS.
NADPH (Chinese name: reduced nicotinamide adenine dinucleotide phosphate, purchased from Sigma, Cat. No.: 481973-500 mg): a certain amount of NADPH was weighed out and a 5 mM solution of NADPH was prepared with a 20 mM MgCl2 solution, and the final incubation concentration was 1 mM.
Compounds: 3 mM, 1 mM, 0.3 mM, 0.1 mM, 0.03 mM, 0.01 mM, and 0 mM solutions of the test compounds were prepared with a DMSO-methanol (v:v = 1:9) solution, and the final incubation concentrations were 30 µM, 10 µM, 3 µM, 1 µM, 0.3 µM, 0.1 µM, and 0 µM. 30 µM, 10 µM, 3 µM, 1 µM, 0.3 µM, and 0 µM solutions of the positive compound (ketoconazole) were prepared with a DMSO-methanol (v:v = 1:9) solution, and the final incubation concentrations were 0.3 µM, 0.1 µM, 0.03 µM, 0.01 µM, 0.003 µM, and 0 µM.
Substrate working solutions: 200 µM and 15 µM solutions of substrate working solutions (testosterone and midazolam) were prepared with PBS, separately, and the final incubation concentrations were 40 µM and 3 µM.
Liver microsomes (purchased from BIOIVT, Cat. No.: X008070): the liver microsomes were diluted to […] with PBS, and the final incubation concentration was 0.1 mg/mL.
The prepared test compounds or positive compounds were added to a 96-well plate, and then the prepared human liver microsome working solution and substrate working solution were added. The mixture was mixed well. The mixture was pre-incubated in a thermostat incubator at 37 °C for 5 min, and then the prepared NADPH was added to start the reaction. The mixture was incubated for 5 min or 10 min. After the incubation was completed, a pre-cooled acetonitrile solution containing an internal standard was added to terminate the reaction. After protein precipitation, the mixture was vortexed for 5 min with shaking and then centrifuged at 4000 rpm for 10 min. The supernatant was collected and added to the 96-well plate. The content (peak concentration ratio) of the metabolites of the substrate was determined by an LC-MS/MS method. The residual activity and the half maximal inhibitory concentration (IC50) of the enzyme were calculated based on the detected content.
Percentage of remaining enzyme activity: The activity of each subtype of CYP450 enzyme was expressed as the amount of metabolite produced, and the percentage of remaining enzyme activity was calculated as follows: [formula]
The concentrations of the test substances and the corresponding residual activity percentages were fitted using a nonlinear model of Excel software, and the concentration of the test substances at which 50% inhibition of metabolite production was achieved was the IC50 value.

PK experiment in mice = settings: female, BALB/c, mouse, plasma, po, 10 mg/kg
Description: (§3) Experimental materials: the experimental animals were healthy adult female BALB/c mice (provided by Sichuan Vital River Laboratory Animal Technology Co., Ltd.).
(§4) Administration mode and sample collection in mice: BALB/c female mice received oral intragastrical administration (10 mg/kg, vehicle: 0.5% methylcellulose/0.2% Tween 80), and 60 µL of whole blood from the venous plexus of the fundus of the mice at different time points was collected at 0.25 h, 0.5 h, 1 h, 2 h, 4 h, 6 h, 8 h, and 24 h after administration and centrifuged at 4000 rpm for 6 min to collect plasma.
(§5) 10 µL of mouse plasma sample was added to 190 µL of acetonitrile solution containing an internal standard to precipitate protein. The mixture was vortexed for 10 min and centrifuged at 4000 rpm for 10 min. The supernatant was collected and added to a 96-well plate. The samples were analyzed by LC-MS/MS. The drug concentrations in the plasma of mice at different time points after intragastric administration of the example compounds were measured by an LC-MS/MS method, and the related pharmacokinetic parameters were calculated, such that the pharmacokinetic behavior of the compounds in the mice was studied, and the pharmacokinetic characteristics were evaluated.

PK experiment in rats = assay type: in vivo; settings: rat; SD male rats, PO 10 mg/kg, vehicle 0.5% MC/0.2% Tween 80, plasma
Description: The samples were analyzed by LC-MS/MS. […] Table 6. Pharmacokinetic parameters for rats

in vivo = settings: mouse, po, 10 mg/kg
Description: as §3, §4, §5

hERG = target: T2, hERG (Homo sapiens, UniProt Q12809); test: hERG test (Predictor hERG Fluorescence Polarization Assay Kit); assay type: binding
T2 construct: purchased ThermoFisher Scientific PV5365
Description: Predictor™ hERG Fluorescence Polarization Assay Kit (ThermoFisher Scientific, PV5365).
The procedures in the kit instructions were followed: 4× Predictor™ hERG Tracer Red, 4× E-4031, and 4× test substance solutions (final assay concentration: 10 µM) were prepared in advance. 5 µL Predictor™ hERG FP Assay Buffer and 5 µL Predictor™ hERG Membrane were added sequentially to the Assay Blank group in a 384-well plate. 2.5 µL Predictor™ hERG FP Assay Buffer, 2.5 µL of 4× E-4031, and 2.5 µL of 4× test substance were added to the negative control group, the positive control group, and the test substance group, respectively, and then 5 µL Predictor™ hERG Membrane and 2.5 µL of 4× Predictor™ hERG Tracer Red were sequentially added. The total volume of the experimental system was 10 µL, and three duplicate wells were set for each group. After loading, the plate was gently tapped to mix well and incubated at room temperature (25 °C) in the dark for 3.5 h. After the incubation was completed, the fluorescence polarization value mP was measured on a microplate reader, and G Factor was 2.14.
The inhibition rate of the test substance was calculated using the following formula: [formula]

T1 sequence (P08684 whole entry): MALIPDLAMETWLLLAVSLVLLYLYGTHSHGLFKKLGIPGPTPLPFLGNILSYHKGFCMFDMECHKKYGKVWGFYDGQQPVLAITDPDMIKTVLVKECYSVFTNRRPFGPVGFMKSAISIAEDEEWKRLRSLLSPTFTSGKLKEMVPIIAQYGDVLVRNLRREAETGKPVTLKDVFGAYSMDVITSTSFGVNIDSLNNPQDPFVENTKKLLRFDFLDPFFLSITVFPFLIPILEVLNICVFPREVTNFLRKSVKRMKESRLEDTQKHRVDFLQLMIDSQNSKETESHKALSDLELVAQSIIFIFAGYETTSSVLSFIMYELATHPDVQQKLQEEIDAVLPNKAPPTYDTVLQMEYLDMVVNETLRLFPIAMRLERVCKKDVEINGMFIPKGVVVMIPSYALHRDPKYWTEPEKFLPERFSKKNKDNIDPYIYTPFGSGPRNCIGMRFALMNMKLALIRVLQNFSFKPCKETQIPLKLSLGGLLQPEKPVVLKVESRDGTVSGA
T2 sequence (Q12809 whole entry): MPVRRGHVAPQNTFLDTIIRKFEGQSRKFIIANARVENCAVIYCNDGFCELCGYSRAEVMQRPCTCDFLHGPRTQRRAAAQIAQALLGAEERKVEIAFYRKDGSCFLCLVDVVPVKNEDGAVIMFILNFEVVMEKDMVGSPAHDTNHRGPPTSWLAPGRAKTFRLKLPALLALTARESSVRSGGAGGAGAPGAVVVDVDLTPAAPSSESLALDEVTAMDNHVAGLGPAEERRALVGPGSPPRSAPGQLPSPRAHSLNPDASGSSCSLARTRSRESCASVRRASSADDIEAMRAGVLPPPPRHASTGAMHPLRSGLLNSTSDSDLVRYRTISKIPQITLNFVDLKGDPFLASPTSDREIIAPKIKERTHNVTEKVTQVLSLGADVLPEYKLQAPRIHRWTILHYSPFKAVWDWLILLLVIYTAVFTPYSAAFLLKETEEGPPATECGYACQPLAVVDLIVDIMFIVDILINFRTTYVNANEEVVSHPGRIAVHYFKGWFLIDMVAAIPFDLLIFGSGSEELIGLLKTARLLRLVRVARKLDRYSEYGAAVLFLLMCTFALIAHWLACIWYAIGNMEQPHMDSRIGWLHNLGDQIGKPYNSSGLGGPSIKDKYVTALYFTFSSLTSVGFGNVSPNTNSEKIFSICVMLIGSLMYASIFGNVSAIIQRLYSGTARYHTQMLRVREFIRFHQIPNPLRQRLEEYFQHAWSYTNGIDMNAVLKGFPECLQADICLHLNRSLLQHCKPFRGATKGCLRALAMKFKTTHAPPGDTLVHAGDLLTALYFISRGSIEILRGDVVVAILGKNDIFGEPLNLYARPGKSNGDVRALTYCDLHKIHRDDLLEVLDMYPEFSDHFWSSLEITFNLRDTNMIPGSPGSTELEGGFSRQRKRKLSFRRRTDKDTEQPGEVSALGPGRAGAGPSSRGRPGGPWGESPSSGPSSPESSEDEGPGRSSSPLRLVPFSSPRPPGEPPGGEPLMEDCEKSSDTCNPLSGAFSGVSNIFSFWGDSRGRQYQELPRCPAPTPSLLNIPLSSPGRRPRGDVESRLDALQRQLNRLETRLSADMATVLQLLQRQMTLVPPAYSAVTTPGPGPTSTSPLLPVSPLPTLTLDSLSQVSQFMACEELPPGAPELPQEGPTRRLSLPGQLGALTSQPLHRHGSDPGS

SMILES	IC50 (wild-type HCT-116 cells) [nM]	Selectivity (MTAP^-/- HCT-116 cells)	IC50 (MTAP^-/- HCT-116 cells) [nM]	half-life at 1 µM [1] [min]	IC50 (CYP450 enzyme 3A4; substrate midazolam 3 µM, read-out: IC50 3A4-Midazolam) [nM]	IC50 (CYP450 enzyme 3A4; substrate testosterone 40 µM, read-out: IC50 3A4-Testosterone) [nM]	AUC(0-t) (PK experiment in mice) [ng·h/mL]	Cmax (PK experiment in mice) [ng/mL]	AUC(0-t) (PK experiment in rats) [ng·h/mL]	Cmax (PK experiment in rats) [ng/mL]	AUC(0-t) (in vivo) [ng·h/mL]	Cmax (in vivo) [ng/mL]	inhibition at 3.5 h, 10 µM (hERG; human, probe Predictor hERG Tracer Red, 10 µM test substance, three duplicate wells) [%]	IC50 (hERG; only 10 µM tested) [nM]
CN(C(=O)c1cc2c3c(c(N)nc2cc1Cl)COC3)[C@@H]1COc2cc(C#Cc3cnn(C)c3)ccc21 [Compound 40A, (S)-4-amino-7-chloro-N-methyl-N-(6-((1-methyl-1H-pyrazol-4-yl)ethynyl)-2,3-dihydrobenzofuran-3-yl)-1,3-dihydrofuro[3,4-c]quinoline-8-carboxamide]	483	105	4.6	62.9	> 30000	> 30000	10100 ± 3500	793 ± 28	–	–	–	–	–	–
CN(C(=O)c1cc2c3c(c(N)nc2cc1F)COC3)[C@@H]1COc2cc(C#Cc3cnn(C4CC4)c3)ccc21 [Compound 16A, (S)-4-amino-N-(6-((1-cyclopropyl-1H-pyrazol-4-yl)ethynyl)-2,3-dihydrobenzofuran-3-yl)-7-fluoro-N-methyl-1,3-dihydrofuro[3,4-c]quinoline-8-carboxamide]	1160	84	13.9	–	–	–	23300 ± 5520	1600 ± 352	13700 ± 2780	1280 ± 270	–	–	–	–
[2H]C([2H])([2H])N(C(=O)c1cc2c3c(c(N)nc2cc1Cl)COC3)[C@@H]1COc2cc(C#Cc3cnn(C4CC4)c3)ccc21 [Compound 86A, (S)-4-amino-7-chloro-N-(6-((1-cyclopropyl-1H-pyrazol-4-yl)ethynyl)-2,3-dihydrobenzofuran-3-yl)-N-(methyl-D3)-1,3-dihydrofuro[3,4-c]quinoline-8-carboxamide]	1080	124	8.7	–	–	–	–	–	–	–	15300 ± 2940	1480 ± 187	–	–
CN(C(=O)c1cc2c3c(c(N)nc2cc1Cl)COC3)[C@@H]1COc2cc(C#Cc3cnn4c3CCCC4)ccc21 [Compound 91A, (S)-4-amino-7-chloro-N-methyl-N-(6-((4,5,6,7-tetrahydropyrazolo[1,5-a]pyridin-3-yl)ethynyl)-2,3-dihydrobenzofuran-3-yl)-1,3-dihydrofuro[3,4-c]quinoline-8-car boxamide]	1390	195	7.1	47.2	–	–	–	–	–	–	–	–	–	–
Nc1nc2cnc(C(=O)N3CCOC[C@@H]3c3ccc(C(F)(F)F)cc3)cc2c2c1COC2 [Reference Example 7, reference compound]	2010	21	97.4	28.9	–	–	12600 ± 1920	1920 ± 76	853 ± 79	477 ± 110	–	–	–	–
CN(C(=O)c1ccc2nc(N)c3cnn(C)c3c2c1)C1COc2cc(C#Cc3cnn(C4CC4)c3)ccc21 (centres unmarked) [Compound 4, 4-amino-N-(6-((1-cyclopropyl-1H-pyrazol-4-yl)ethynyl)-2,3-dihydrobenzofuran-3-yl)-N,1-dimethyl-1H-pyrazolo[4,3-c]quinoline-8-carboxamide]	1320	165	8	169	–	–	9150 ± 2240	634 ± 71	–	–	–	–	–	–
C#Cc1ccc2c(c1)OC[C@H]2N(C)C(=O)c1cc2c3c(c(N)nc2cc1Cl)COC3 [Reference Example 5, reference compound]	–	–	–	25.6	–	–	9080 ± 2790	1400 ± 165	2940 ± 438	549 ± 139	–	–	–	–
C#Cc1ccc2c(c1)OCC2N(C)C(=O)c1cc2c(cc1F)nc(N)c1cnn(C)c12 (centres unmarked) [Reference Example 1, reference compound]	–	–	–	16.6	–	–	–	–	–	–	–	–	–	–
C#Cc1ccc2c(c1)OCC2N(C)C(=O)c1ccc2nc(N)c3cnn(C)c3c2c1 (centres unmarked) [Reference Example 2]	–	–	–	33.6	–	–	–	–	784 ± 595	131 ± 17	–	–	–	–
[2H]C([2H])([2H])n1cc(C#Cc2ccc3c(c2)OC[C@H]3N(C)C(=O)c2cc3c(cc2F)nc(N)c2cnn(C)c23)cn1 [Compound 82A, (S)-4-amino-7-fluoro-N,1-dimethyl-N-(6-((1-(methyl-D3)-1H-pyrazol-4-yl)ethynyl)-2,3-dihydrobenzofuran-3-yl)-1H-pyrazolo[4,3-c]quinoline-8-carboxamide]	196	75	2.6	–	–	–	–	–	–	–	14100 ± 4740	1430 ± 195	–	–
CN(C(=O)c1cc2c(cc1F)nc(N)c1cnn(C)c12)[C@@H]1COc2cc(C#Cc3cnc4n3CCCC4)ccc21 [Compound 66A, (S)-4-amino-7-fluoro-N,1-dimethyl-N-(6-((5,6,7,8-tetrahydroimidazo[1,2-a]pyridin-3-yl)ethynyl)-2,3-dihydrobenzofuran-3-yl)-1H-pyrazolo[4,3-c]quinoline-8-carb oxamide]	299	150	2	–	–	–	23200 ± 3390	3830 ± 533	–	–	–	–	14.2 ± 14	> 10000

Reference: patent EP4755886A1 (Chengdu Chipscreen Pharmaceutical Ltd., priority 2023, dated 2025)
